Laboratory results taken from patent publication US9399637B2, “Substituted heteroaryl compounds and methods of use” (Calitor Sciences, LLC, priority 2014, dated 2016).

Experiments:
TYK2 (h) = target: T1, TYK2 (h) (Homo sapiens, UniProt P29597); experiment: TYK2 kinase assay; assay type: biochemical
T1 construct: purchased Millipore UK Ltd (assays run there as a service)
Method: (§1) Kinase assays can be performed by measurement of incorporation of γ-^33P ATP into immobilized myelin basic protein (MBP). High binding white 384 well plates (Greiner) are coated with MBP (Sigma #M-1891) by incubation of 60 μL/well of 20 μg/mL MBP in Tris-buffered saline (TBS; 50 mM Tris pH 8.0, 138 mM NaCl, 2.7 mM KCl) for 24 h at 4° C. Plates are washed 3× with 100 μL TBS. Kinase reactions are carried out in a total volume of 34 μL in kinase buffer (5 mM Hepes pH 7.6, 15 mM NaCl, 0.01% bovine gamma globulin (Sigma #I-5506), 10 mM MgCl2, 1 mM DTT, 0.02% TritonX-100). Compound dilutions are performed in DMSO and added to assay wells to a final DMSO concentration of 1%. Each data point is measured in duplicate, and at least two duplicate assays are performed for each individual compound determination. Enzyme is added to final concentrations of 10 nM or 20 nM, for example. A mixture of unlabeled ATP and γ-^33P ATP is added to start the reaction (2×10^6 cpm of γ-^33P ATP per well (3000 Ci/mmole) and 10 μM unlabeled ATP, typically. The reactions are carried out for 1 h at room temperature with shaking Plates are washed 7× with TBS, followed by the addition of 50 μL/well scintillation fluid (Wallac). Plates are read using a Wallac Trilux counter. This is only one format of such assays; various other formats are possible, as known to one skilled in the art. […]

Aurora-A (h) = target: T2, Aurora-A (h) (Homo sapiens, UniProt O14965); experiment: Aurora-A kinase assay; assay type: biochemical
T2 construct: purchased Millipore UK Ltd (assays run there as a service)
T2 sequence (O14965 1-403): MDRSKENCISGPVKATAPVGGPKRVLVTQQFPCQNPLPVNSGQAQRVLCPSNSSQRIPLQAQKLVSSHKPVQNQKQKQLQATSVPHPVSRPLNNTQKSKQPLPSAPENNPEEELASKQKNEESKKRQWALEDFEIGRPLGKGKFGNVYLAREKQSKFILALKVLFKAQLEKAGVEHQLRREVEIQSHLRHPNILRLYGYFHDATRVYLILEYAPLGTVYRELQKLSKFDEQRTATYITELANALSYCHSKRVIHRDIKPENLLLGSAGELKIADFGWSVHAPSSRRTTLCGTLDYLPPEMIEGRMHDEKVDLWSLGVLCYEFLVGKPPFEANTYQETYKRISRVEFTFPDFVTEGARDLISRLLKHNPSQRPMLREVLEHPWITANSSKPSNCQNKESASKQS
Method: as §1

T1 sequence (P29597 whole entry): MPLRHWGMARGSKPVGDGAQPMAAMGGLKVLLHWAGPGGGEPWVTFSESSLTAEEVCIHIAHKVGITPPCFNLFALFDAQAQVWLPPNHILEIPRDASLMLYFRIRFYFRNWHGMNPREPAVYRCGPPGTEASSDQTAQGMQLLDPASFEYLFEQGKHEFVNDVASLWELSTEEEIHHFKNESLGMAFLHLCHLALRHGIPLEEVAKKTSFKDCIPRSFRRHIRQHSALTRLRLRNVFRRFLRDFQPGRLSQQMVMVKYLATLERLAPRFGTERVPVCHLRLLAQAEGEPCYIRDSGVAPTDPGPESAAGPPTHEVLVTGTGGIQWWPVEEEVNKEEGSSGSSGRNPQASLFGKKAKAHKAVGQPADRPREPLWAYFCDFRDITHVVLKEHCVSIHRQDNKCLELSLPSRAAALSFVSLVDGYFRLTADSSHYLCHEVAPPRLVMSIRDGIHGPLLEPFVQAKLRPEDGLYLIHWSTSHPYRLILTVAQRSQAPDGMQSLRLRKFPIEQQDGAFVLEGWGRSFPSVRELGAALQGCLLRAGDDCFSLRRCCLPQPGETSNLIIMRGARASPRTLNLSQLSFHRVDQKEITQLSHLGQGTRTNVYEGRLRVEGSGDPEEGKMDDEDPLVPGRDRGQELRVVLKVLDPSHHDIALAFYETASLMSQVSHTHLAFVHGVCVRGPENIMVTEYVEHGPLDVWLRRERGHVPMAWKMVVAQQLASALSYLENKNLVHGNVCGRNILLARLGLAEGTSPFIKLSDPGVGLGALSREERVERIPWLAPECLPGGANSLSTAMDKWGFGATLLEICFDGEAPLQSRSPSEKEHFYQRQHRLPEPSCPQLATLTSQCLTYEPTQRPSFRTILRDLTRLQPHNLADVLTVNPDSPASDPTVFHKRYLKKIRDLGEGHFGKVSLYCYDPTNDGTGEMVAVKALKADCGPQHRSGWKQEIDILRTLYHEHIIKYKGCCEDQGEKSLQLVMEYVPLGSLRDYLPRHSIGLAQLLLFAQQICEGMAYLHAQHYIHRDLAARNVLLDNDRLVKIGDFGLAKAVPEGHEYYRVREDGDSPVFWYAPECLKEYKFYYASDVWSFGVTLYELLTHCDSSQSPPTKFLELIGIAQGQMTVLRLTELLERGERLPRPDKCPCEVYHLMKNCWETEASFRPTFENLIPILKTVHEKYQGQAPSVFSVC

- IC50 (TYK2 (h)): 0.02 µM
- IC50 (Aurora-A (h)): 0.104 µM
SMILES: Cc1c2ccc(Nc3ncc(Cl)c(NC4CC5CN(C(=O)CC#N)CC5C4)n3)cc2nn1C (centres unmarked) [Ex. 4, 3-(5-((5-chloro-2-((2,3-dimethyl-2H-indazol-6-yl)amino)pyrimidin-4-yl)amino)hexahydrocyclopenta[c]pyrrol-2(1H)-yl)-3-oxopropanenitrile]
